This assay has as its system H293. Briefly: Cytotoxicity testing, CellTiter-Blue assay, 24 hour (FIG. 3). It counts as cell-based. Conditions: 100 μM, 24 hour compound incubation. How it is done:
The cytotoxicity tests were carried out in the following manner. Living cells are known to convert resazurin to the fluorescent compound resorufin. Test systems which rely upon this reaction are commercially available. One such test is known at the Cell Titer Blue Cell Viability test assay from Promega. Cell cultures for each of the identified cancer lines were obtained from ATCC and maintained in Dulbecco's Modified Eagle Medium (DMEM) supplemented with 10% fetal bovine serum (FBS) and pen/strep. As known to those skilled in the art, DMEM typically includes the components identified below.
The test method provides for incubating the cell cultures at temperatures which correspond to the range of body temperatures experienced by the patient from which the cancer cells were obtained. Typically, incubation temperatures will be between the temperatures of 36.1° C. and 37.2° C. In most cases incubation will occur at 37° C. Additionally, the cell cultures are kept under an atmosphere which mimics cell conditions of the tumor within the patient's body. In most cases, the tumor microenvironment (TME) is characterized by hypoxia (low oxygen) and may also be characterized by hypercapnia (increased CO2). Hypercapnia results from decreased blood flow which limits CO2 elimination. Restricted CO2 elimination leads to increased HCO3^− conversion to CO2 in order to neutralize lactate as altered tumor cell metabolism produces more CO2 than normal. Normal tissue averages about 5% oxygen with oxygen ranges from about 3% to 7.4%. […] In the case of CO2, normocapnic is around 5% CO2, while hypercapnic can rise to 10% CO2. Therefore, to mimic the environment of the tumor the method utilizes an incubator designed to provide the optimal gaseous environment corresponding to that of the tumor. Thus, the incubator will be capable of maintaining an atmosphere having an oxygen content in the range of […] and a CO2 in the range of 1% to 10%.
After allowing for proliferation of the cells, the cells were distributed across a plurality of test wells containing from 100 μL DMEM plus 10% FBS and allowed to attach to the surface of the test wells. Typically, the time for attachment will require about 12 hours to about 18 hours. […] Following treatment of the cells with the N-benzyl sulfonamide or control, the toxicity of the compound to the cells will be determined by addition of a luminescing agent. […] Subsequently, the fluorescence of resazurin is measured by excitation at 560 nm and recording the emission at 590 nm within an instrument configured to measure fluorescence intensity. Two commercially available systems are the BioTek Cytation 5 plate reader and the Promega Glomax Multi+detection system. […]
(In general: Alamar Blue is a resazurin reagent that responds to reducing activity.)

`O=S(=O)(NCc1c[nH]c2ccccc12)c1ccc(Cl)cc1` [Compound 2, N-[(1H-indol-3-yl)methyl]-4-chlorobenzenesulfonamide]: the “effectiveness, percent reduction in cell viability (FIG. 3)” value is recorded as “effective”.

The values are drawn from US20250093329A1, “SCREENING OF COMPOUNDS” (THE UNIVERSITY OF TULSA, priority 2022, published 2025).
